Data as given in publication PMC6406907, “A H2AX–CARP-1 Interaction Regulates Apoptosis Signaling Following DNA Damage” (Cancers, 2019).
No end group written: not given here. HA = not defined here

Legend:
[1] = tested on: caspases-3, -8, -9, and -2; assay: Caspase activity, ApoAlert Caspase profiling plate, MDA-MB-468 sublines; assay type: cell-based, human; conditions: for caspase-3 activation in EGFP-peptide-expressing cells: MDA-MB-468 sublines vs EGFP vector subline, Figure 7E,F
Description: Our next objective was to analyze the biological significance of the CARP-1–H2AX interaction in cells. For this purpose, we utilized MDA-MB-468 and HeLa cell lines that stably express myc-His-tagged wild-type CARP-1 or CARP-1 (Δ600–650)-myc-His proteins as detailed in Figure S4 (Supplementary Materials). These sublines were then either untreated (Control, DMSO), or treated with Adriamycin or CFM-4 compound. […] Next, we measured activation of caspases as an apoptosis readout in cells expressing myc-His-tagged wild-type CARP-1 or CARP-1 (Δ600–650) proteins that were either untreated or treated with Adriamycin or CFM compounds as detailed in Section 2. We utilized a lower, 4–5 μM dose of Adriamycin or CFM compounds because a 10 μM Adriamycin dose caused interference in signal output/readout in this particular assay, likely due to background fluorescence that is emitted by higher dose of Adriamycin. Although Adriamycin has a maximum excitation and emission wavelength of 470 and 560 nm, respectively, we found significant fluorescence emission in cells treated with 10 μM Adriamycin at a 380-nm excitation wavelength. Moreover, since caspase activation precedes apoptotic cell death, we utilized a lower dose of Adriamycin to permit a robust measurement of optimal caspase activation in cells undergoing moderate apoptosis with lower/minimal interference by Adriamycin-induced fluorescence signals. […] MDA-MB-468 or HeLa cells that express EGFP or EGFP-H2AX (1–35) were separately treated with Adriamycin, and presence of CARP-1 and γH2AX was determined by immuno-cytochemical staining followed by photography by a confocal microscope as described in Section 2. […]
Figure 7 Disruption of H2AX interaction with CARP-1 results in enhanced viabilities of CFM-4-, CFM-4.16-, or Adriamycin-treated cells in part due to reduced apoptosis. […] The fluorescence released from the activated caspase-dependent cleavage of respective substrate was detected by a plate reader at the excitation and emission wavelengths of 380 nm and 460 nm, respectively, as detailed in Section 2. […]

MDA-MB-468 cells = assay: MTT cell viability/growth inhibition, MDA-MB-468; assay type: cell-based, human; conditions: for cell viability: 10 μM, MDA-MB-468, MTT, mean of three independent experiments; for growth inhibition of EGFP-CARP-1 / EGFP-H2AX (1–35)-expressing cells: MDA-MB-468 sublines vs EGFP-expressing counterparts
Experimental: Routine maintenance and culture of MDA-MB-468 (lacking estrogen receptor; ER and having mutant p53) human triple-negative breast cancer (TNBC) cells, human cervical cancer HeLa, human kidney cancer UOK 262, non-small-cell lung cancer H1975, and HCC827 cells was carried out essentially as described previously. Generation and characterization of MDA-MB-468 cells expressing reduced CARP-1 was described previously. The stable sublines were generated by transfecting the MDA-MB-468 and Hela cells with the pcDNA3 vector, pcDNA3-CARP-1 wild-type (WT)-myc-His clone 6.1.2, pcDNA3-CARP-1(Δ600–650)-myc-His, pcDNA3-EGFP, pcDNA3-EGFP-H2AX (1–35), or pcDNA3-EGFP-CARP-1 (636–650) plasmids, followed by selection in the presence of 800 μg/mL neomycin using described methods. The cell lysates from wild-type, untransfected cells, neomycin-resistant pools, or individual sublines were then subjected to MTT-based viability, confocal, immunoprecipitation (IP), and Western blot (WB) analyses as below.
The cell growth inhibition was assessed using an MTT assay following the established protocols described by us previously.
Here, we utilized human TNBC MDA-MB-468 and human cervical cancer HeLa cells to conduct an MTT-based dose-response analysis using Adriamycin and CFM compounds. […] Since Adriamycin, CFM-4, and CFM-4.16 have molecular masses of 543.3, 404.9, and 440.3, respectively, we chose to use an equimolar dose of each compound in the MTT assays. […] Prior reports established that phosphorylation of H2AX at serine 139 (γ-H2AX) is involved in DNA damage repair and apoptotic signaling by ATM/ATR and JNKs, respectively. Next, the MDA-MB-468, HeLa, and the kidney cancer UOK 262 cells were treated with a 10 μM dose of the CFM-4.16 or Adriamycin for various time periods. The cell lysates from the control, untreated, and treated cells were analyzed by WB for expression of CARP-1, phospho-JNK1/2, phospho-H2AX, and poly ADP ribose polymerase (PARP) proteins. […] The H2AX activation is also indicative of DNA damage and involves pro-apoptotic JNKs. Our data in Figure 1C and Figure S1B,C (Supplementary Materials) also show activation of JNKs; however, a robust JNK activation is co-incident with H2AX phosphorylation following treatments with Adriamycin or CFM-4.16.
Figure 7 Disruption of H2AX interaction with CARP-1 results in enhanced viabilities of CFM-4-, CFM-4.16-, or Adriamycin-treated cells in part due to reduced apoptosis. (A,C,D) Indicated MDA-MB-468 cell lines were treated with DMSO (Control), or with the noted dose and time of Adriamycin, CFM-4, or CFM-4.16 compounds. Determination of viable/live cells was carried out by MTT assay as described in Section 2. (B,E,F) Cell lysates derived from vehicle DMSO (Control), or CFM-4-, CFM-4.16-, or Adriamycin-treated cells were added to the wells that had immobilized fluorogenic substrates of noted caspases. The fluorescence released from the activated caspase-dependent cleavage of respective substrate was detected by a plate reader at the excitation and emission wavelengths of 380 nm and 460 nm, respectively, as detailed in Section 2. The columns in bar charts in panels A, C, D and B, […] represent means of three and two independent experiments, respectively; bars, SE. For panels C and D, * p < 0.05, **p < 0.01 and *** p ≤ 0.001 relative to the respective EGFP vector subline. For panels E and F, *** p ≤ 0.05 relative to the respective EGFP vector subline.
Figure 8 Ectopic expression of TAT-CARP-1 (636–650) peptide results in enhanced viabilities of Adriamycin-treated cells. MDA-MB-468 (A) or HeLa (B) cells were pre-incubated with 300 μg/mL indicated peptides for 72 h, followed by treatments with the noted dose and time of Adriamycin. Determination of viable/live cells was carried out using an MTT assay as described in Section 2. […]

Molecule	cell viability (MDA-MB-468 cells)	growth inhibition of EGFP-CARP-1 / EGFP-H2AX (1–35)-expressing cells (MDA-MB-468 cells; MTT, mean of three experiments)	caspase-3 activation in EGFP-peptide-expressing cells [1]	also measured
COc1cccc2c1C(=O)c1c(O)c3c(c(O)c1C2=O)C[C@@](O)(C(=O)CO)C[C@@H]3O[C@H]1C[C@H](N)[C@H](O)[C@H](C)O1 [Adriamycin, doxorubicin, reference compound]	inhibited viabilities of both the cell lines in a time-dependent manner	resistant to inhibition by CFM-4.16 or ADR		caspase activation in CARP-1 (Δ600–650) cells ([1]; 4–5 μM, CARP-1 (Δ600–650) vs wild-type CARP-1-expressing cells, mean of two experiments, 380/460 nm): overall reduction in activation of caspases-3, -8, -9, and -2; cell-growth inhibition (MDA-MB-468 cells; 10 μM dose, MDA-MB-468, MTT dose-response, Figure S1A): robust cell-growth inhibition; growth inhibition of CARP-1 (Δ600–650)-expressing cells (MDA-MB-468 cells; MDA-MB-468 CARP-1 (Δ600–650) vs WT CARP-1-expressing counterparts, MTT, mean of three experiments): resistant to inhibition by CFM-4 or ADR
O=C1N(Cc2ccccc2Cl)c2ccccc2C12NN=C(c1cccc(Cl)c1)S2 (stereo not shown) [CFM-4.16]	inhibited viabilities of both the cell lines in a time-dependent manner	resistant to inhibition by CFM-4.16 or ADR		
EGFP-CARP-1 (636–650): EGFP-tagged fusion protein stably expressed in MDA-MB-468 and HeLa sublines (PKTMKVNDLRKELES; also: EGFP fusion kept, end not given here)		resistant to inhibition by CFM-4.16 or ADR	overall reduction in activation of caspase-3	
EGFP-H2AX (1–35): EGFP-tagged fusion protein stably expressed in MDA-MB-468 and HeLa sublines (MSGRGKTGGKARAKAKSRSSRAGLQFPVGRVHRLL; also: EGFP fusion, end not given here; UniProt P16104 1-35, looked up, fragment)		resistant to inhibition by CFM-4.16 or ADR	overall reduction in activation of caspase-3	
His-TAT-HA-CARP-1 (636–650): His-TAT-HA-tagged CARP-1 (636–650) peptide, >95% purity, commercially synthesized ({His-TAT-HA}-PKTMKVNDLRKELES; reading uncertain; UniProt Q8IX12 636-650, looked up, fragment)				viability of Adriamycin-treated cells (MDA-MB-468 cells; MDA-MB-468 pre-incubated with 300 μg/mL peptide, 72 h, then Adriamycin, vs EGFP, MTT, mean of three experiments): moderate, statistically significant increase in viabilities; abrogation of Adriamycin-induced growth inhibition (MDA-MB-468 cells; cancer cells, abstract): moderate, statistically significant abrogation of Adriamycin-induced growth inhibition
